In publication PMC8839081 (Molecules, 2022):
“And” between values parts separate entries of the source, which are not always exact repeats. Identical values can stand only once. Like-named read-outs stand apart in the source and are kept apart here.

Key:
[1] = test system: bloodstream Trypanosoma brucei brucei; test: Bioluminescent viability assay on bloodstream T. b. brucei (LUC cell line); type: cell-based; conditions: 24 h; for viability at 10 µM: read-out: Viability at 10 µM (%), bloodstream T. b. brucei, 10 µM, 24 h
Description: The anti-trypanosomal activity of compounds was evaluated against the bioluminescent cell line of the bloodstream stage of Trypanosoma brucei brucei (called LUC cell line) as previously described. Briefly, to a 96-well culture plate containing 2.2 μL/well DMSO (negative control) or compounds dissolved in DMSO (1% final concentration), 220 μL/well of a suspension of 1 × 10^5 parasites/mL was added. The plates were incubated at 37 °C and 5% CO2 for 24 h. Next, each well was transferred to a 96-well black plate and 20 μL of a solution containing D-Luciferin (1.5 mg/mL in PBS glucose 1% w/v) and Triton X-100 (0.05% vol/vol) was added. Bioluminescence signal was measured in a LUMIstar OPTIMA Microplate luminometer using the following settings: 10 s shaking, 5 s/well acquisition, 0.2 s measurement delay, maximum gain, and 37 °C. For the bioluminescence assay, parasite viability was calculated according to the following formula: Viability (%) = (BLcpd—BLblank)/ (Blneg—BLblank) × 100, where BL refers to the mean of bioluminescence signal corresponding to the tested compound (cpd), the blank (blank, complete media containing 1% v/v DMSO), or the negative control (neg, parasites treated with 1% v/v DMSO). EC50 values were determined from concentration-response curves fitted to a four-parameter sigmoid equation using the GraphPad Prism software (version 6.0). All errors are expressed as one SD.

C6 glioma cells [2] = test: WST-1 cell viability assay on C6 cells; type: cell-based, Rat; conditions: for IC50: Rattus norvegicus, 48 h exposure, read-out: IC50 of cell proliferation / cell viability (WST-1)
Description: (§1) Cell culture: Rat C6 glioma cells were purchased from the American Type Culture Collection (CC-107) and maintained in Dulbecco’s Modified Eagle Medium (Life Technologies, Carlsbad, CA, USA; 10569) with 5% (v/v) fetal bovine serum (FBS, Atlanta Biologicals) and 100 U mL−1 of penicillin and streptomycin (Life Technologies). Cells were incubated at 37 °C with 5% CO2 humidified atmosphere. As a glioma cell line, C6 cells are highly susceptible to phenotypic drift, which can lead to varying expression levels of receptors and growth factors of interest. For such reason, all data presented here show a single representative experiment of many independent replicate trials.
WST-1 Cell Viability Assay: After compound treatment, conditioned media were removed and replaced with 75 μL of warm low-serum media. To each well was added 5 μL of WST-1 Cell Proliferation Reagent (Roche Applied Science, Penzberg, Germany), and the cells were incubated at 37 °C for no more than 1 h. Plates were briefly shaken prior to reading the absorbance at 450 nm. Treatments were compared to vehicle control.

C6 glioma cells [3] = test: GDNF release by C6 cells (sandwich ELISA of culture medium); type: cell-based, Rat; conditions: 48 h; for GDNF in the medium relative to negative control (GDNF/DMSO): initial screening, confluent C6 cells, 10 μM; for EC50: Rattus norvegicus, C6 glioma, read-out: EC50 of GDNF release; for maximum GDNF release relative to vehicle: dose-response assay, maximum at 10 µM
Description: as §1
GDNF release experiments: Into a 96-well plate were added C6 cells at a density of 25,300 cells/well in full growth medium (see above). Cells were allowed to adhere for 24 h at 37 °C. Cells were then serum-starved with media containing 0.5% FBS (low serum) for an additional 24 h. Low-serum media was refreshed prior to starting the experiment. Compounds were added in 50 μL of low-serum media to obtain a final volume of 200 μL/well. Treatments were performed in quadruplicate. […] Experiments were terminated by removing the conditioned media from each well and storing them at −80 °C until analyzed. GDNF was detected using a standard sandwich-style ELISA kit purchased from Promega Corporation (Madison, WI, USA) following the manufacturer’s instructions. Briefly, monoclonal anti-GDNF antibodies were captured onto a 96-well Nunc Immulon Immunoassay plate at a dilution of 1:1000 in carbonate coating buffer (25 mM sodium bicarbonate, 25 mM sodium carbonate, pH 8.2) overnight at 4 °C. After removing the monoclonal antibody, wells were blocked with 1× block and sample buffer for 1 h at RT (200 μL/well). A GDNF standard curve was created by serially diluting the recombinant human GDNF standard in 1× block and sample buffer to a concentration range of 0−1000 pg mL^−1. To each sample well was added 100 μL of conditioned media from above and the standard curve (in duplicate), and plates were incubated for 6 h with shaking at RT. After washing five times with TBST (150 mM sodium chloride, 10 mM Tris·HCl, 10 mM Tris base, 0.05% Tween 20, pH 7.6), wells were incubated with antihuman polyclonal GDNF antibodies (1:500) in 1× block and sample buffer overnight at 4 °C. Following an additional five washes with TBST, wells were incubated with antichicken IgY-HRP conjugate antibody (1:250) for 2 h with light shaking. After a final five washes, TMB One (100 μL/well) was added to each well and allowed to develop in the absence of light until there were clear differences in color between the highest and lowest concentrations of the standard curve. Wells were then quenched with 1 M HCl (100 μL/well), and the plates were read at an absorbance wavelength of 450 nm using a BioTek Synergy H1 plate reader.

C6 glioma cells [4] = test: LDH cytotoxicity (cell lysis) assay on C6 cells; type: cell-based; conditions: 48 h, dose-response 0.03 to 60 µM
Description: as §1
LDH Cytotoxicity Assay: The lactate dehydrogenase cytotoxicity assay (Promega) was performed following the manufacturer’s instructions. Briefly, following compound treatment, conditioned media were removed, and untreated wells were washed twice with phosphate buffered saline. To untreated wells was added 40 μL of low-serum media supplemented with lysis buffer provided in the kit (1:10), protease inhibitor cocktail (1:100), and phosphatase inhibitor cocktail 2 (1:100). Cells were lysed at 37 °C for 1 h. […] The wells were quenched with 50 μL of stop solution, and the plates were read at an absorbance wavelength of 490 nm.

[5] = test system: bloodstream Trypanosoma brucei brucei; conditions: read-out: EC50 (µM) against bloodstream T. b. brucei, same cell line and assay conditions, ref Benítez et al. 2020, cited from earlier work
[6] = read-out: EC50 (µM) against bloodstream T. b. brucei, mean SD (n = 3)
[7] = Trypanosoma brucei, read-out: EC50 (µM) against bloodstream T. b. brucei, 24 h, mean SD (n = 3)
[8] = mean SD (n = 3), read-out: EC50 (µM) against bloodstream T. b. brucei
[9] = Trypanosoma brucei, mean SD (n = 3), read-out: EC50 (µM) against bloodstream T. b. brucei

Structure (SMILES) | viability at 10 µM ([1]; Trypanosoma brucei) | GDNF in the medium relative to negative control (GDNF/DMSO) (C6 glioma cells [3]) | EC50 [1, 6] | maximum GDNF release relative to vehicle (C6 glioma cells [3]) | EC50 [1, 8] | EC50 [1, 9] | also measured
CC1(C)OC2C3C=CC(C)(C2O1)N(CCc1c[nH]c2ccccc12)C3CO [Compound 13, (1S, 3R, 4S, 5S, 6R)-N-(2-(3-indolyl)ethyl)-1-methyl-3-hydroxymethyl-5,6-isopropylidendioxy-2-azabicycle[2.2.2]-7-octene] | 88% | – | – | – | – | – | –
COC(=O)C1C2C=CC(C)(C3OC(C)(C)OC23)N1CCc1c[nH]c2ccccc12 [Compound 6, (1S, 3R, 4S, 5R, 6S)-Methyl N-(2-(3-indolyl)ethyl)-1-methyl-5,6-isopropylidendioxy-2-azabicycle[2.2.2]-7-octenen-3-carboxylate] | 24 ± 6% | up to 6 times | 7.9 µM and 7.96 µM | – | – | – | concentrations at which cell viability is impaired (WST-1) (C6 glioma cells [2]; 48 h, dose-response 0.03 to 60 µM): ≥ 10 µM; concentrations with significant cell lysis / cell death (LDH) (C6 glioma cells [4]): 60 µM
CC1(C)OC2C3C=CC(C)(C2O1)N(CCc1c[nH]c2ccccc12)C3COCc1ccccc1 [Compound 14, (1S, 3R, 4S, 5S, 6R)-N-(2-(3-indolyl)ethyl)-1-methyl-3-benzyloximethyl-5,6-isopropylidendioxy-2-azabicycle[2.2.2]-7-octene] | 22 ± 12% | ≤ 7 times | 1.27 ± 0.26 µM | 23 times | – | – | lowest concentration with impairment in cell viability (WST-1) (C6 glioma cells [2]; 48 h, dose-response): ≥ 300 nM; EC50 (C6 glioma cells [3]): 20.1 µM; EC50 [1, 7]: 1.3 µM
CC1CS(=O)(=O)CCN1/N=C/c1ccc([N+](=O)[O-])o1 (stereo not drawn) [Nifurtimox] | – | – | – | – | – | – | EC50 [5]: 5.3 µM; EC50 ([5]; listed as Nfx): 5.31 ± 0.44 µM
CC1(C)OC2C3C=CC(C)(C2O1)N(CCc1c[nH]c2ccccc12)C3COC(=O)Cc1c[nH]c2ccccc12 [Compound 15, (1S, 3R, 4S, 5S, 6R)-N-(2-(3-indolyl)ethyl)-1-methyl-3-(2-(1H-3-indolyl)acetyloxy)methyl-5,6-isopropylidendioxy-2-azabicycle[2.2.2]-7-octene] | 0% | up to 60 times | – | 70 times | 3.47 ± 0.02 µM | 3.5 µM | IC50 (C6 glioma cells [2]): 3.5 µM; EC50 (C6 glioma cells [3]; dose-response 0.03 to 60 µM): 6.79 µM
CC(C)C(C)(C)[Si](C)(C)OCC1C2C=CC(C)(C3OC(C)(C)OC23)N1CCc1c[nH]c2ccccc12 [Compound 11, (1S, 3R, 4S, 5S, 6R)-N-(2-(3-indolyl)ethyl)-1-methyl-3-(dimethyl(1,1,2-trimethylpropyl)silyloxy)methyl-5,6-isopropylidendioxy-2-azabicycle[2.2.2]-7-octene] | 37 ± 6% | ≤ 15 times | – | 9 times | 7.95 ± 0.34 µM | 7.9 µM | IC50 (C6 glioma cells [2]): 17.7 µM; EC50 (C6 glioma cells [3]; dose-response 0.03 to 60 µM): 3.46 µM
COC(=O)C1C2C=CC(C)(C3OC(C)(C)OC23)N1CCc1c[nH]c2ccccc12 [Compound 7, (1S, 3S, 4S, 5S, 6R)-Methyl N-(2-(3-indolyl)ethyl)-1-methyl-5,6-isopropylidendioxy-2-azabicycle[2.2.2]-7-octenen-3-carboxylate] | – | – | – | – | 31.5 ± 1.18 µM | 31.5 µM | Viability at 10 µM (%) ([1]; bloodstream T. b. brucei, 10 µM): 42 ± 14%
CCC1CC2C=CC1N(CCc1c[nH]c3ccc(F)cc13)C2 (stereo not drawn) [XL-008, reference compound] | – | ~ 57 times | 19.5 ± 0.3 µM | – | – | – | EC50 [1, 7]: 20 µM
CC(C)C(C)(C)[Si](C)(C)OCC1NC2(C)C=CC1C1OC(C)(C)OC12 [Compound 10exo, (1S, 3R, 4S, 5R, 6S)-1-Methyl-3-(dimethyl(1,1,2-trimethylpropyl)silyloxy)methyl-5,6-isopropylidendioxy-2-azabicycle[2.2.2]-7-octene] | 64 ± 2% | – | – | – | – | – | –
